Results: PMC11960969, “Mdga2 deficiency leads to an aberrant activation of BDNF/TrkB signaling that underlies autism-relevant synaptic and behavioral changes in mice” (PLOS Biology, 2025)
Several values for one entry are separate records, joined by “and”; a condition that tells them apart may be missing. Equal entries are not always repeated. No end group written: not given here.

Experiments:
hippocampal proteins = experiment: DIA quantification proteomics, hippocampus of Mdga2+/- vs WT mice; design: species or system mouse; settings: S3 Table, downregulated DEPs; for log2FC: Mdga2+/- vs WT mouse hippocampus (HET-HIP-VS-WT-HIP), SE, pvalue and adj_pvalue in own columns c3-c5; for Class: regulation class of the protein, HET-HIP-VS-WT-HIP
Description: The hippocampus of 1.5–2-month-old Mdga2^ +/− male mice and their WT littermate controls was collected and sent to the BGI company for DIA quantification proteomics and data analysis. Briefly, samples were lysed and sonicated. After centrifugation, the supernatant was taken for quantification. Equal amounts of proteins (100 μg) per sample were subjected to trypsin enzymatic hydrolysis. After dryness, 10 μg enzymatic peptides per sample were separated by high-pH fractionation into a total of 10 fractions using high-performance liquid chromatography (HPLC) and freeze-dried. Data-dependent acquisition (DDA) fractions and DIA samples were analyzed by nano-LC–MS/MS. DDA data was identified by Andromeda search engine within MaxQuant. Identified results were used by Spectronaut^TM for spectral library construction. For DIA data, Spectronaut^TM used the constructed spectral library information to complete deconvolution and extraction, and used the mProphet algorithm to complete analytical quality control for obtaining reliable quantitative results. The mass spectrometry proteomics data have been deposited to the ProteomeXchange Consortium via the PRIDE [62] partner repository with the dataset identifier PXD050810. DEPs between comparison groups were identified based on the quantitative results, using the fold change >1.1 and p-value <0.05 as the criteria. After retrieval from the UniProtKB database, identified DEPs were processed for GO analysis by using DAVID (https://david.ncifcrf.gov/home.jsp) and Metascape database (https://metascape.org/gp/index.html).

mice [1] = experiment: Three-chamber test (sociability and social novelty); type: in vivo, mouse; design: key to Sociability, Figure S4G: sociability index = (T_S1 - T_E)/(T_S1 + T_E), sniffing time; key to Social novelty, Figure S4G: social novelty index = (T_S2 - T_S1)/(T_S2 + T_S1), sniffing time; settings: for Sociability, Figure S4G / Social novelty, Figure S4G: individual animals
Description: (§1) Six- to eight-week-old male mice were subjected to various behavioral tests. Mice were allowed to acclimatize in the testing room for 1 h prior to each test. Data were recorded and analyzed using Smart 3.0 video tracking system (Panlab, Harvard Apparatus).
This test was performed as described previously with minor modifications. The apparatus (60 W × 40 D × 22 H cm) has two transparent partitions separating the left, the middle, and the right chambers (20 × 40 cm each), and each partition has a small opening (5 × 5 cm) for access to each chamber. A fixed wire cylinder (8.5 cm diameter) was placed in each of the left and the right chambers. This test consisted of three phases: habituation, sociability test, and social novelty test. During habituation, both left and right cylinders were empty, and tested mice were placed in the center and allowed to explore freely for 10 min. During the sociability test, a gender-matched strange mouse (S1) was enclosed in one empty cylinder, and mice were allowed to freely explore for 10 min. Their time spent sniffing S1 or the other empty cylinder (E) was measured and the sociability preference index (T(S1 − -E)/T(S1 + E): time spent sniffing S1 minus time spent sniffing E over time spent sniffing both S1 and E) was calculated for comparison. During the social novelty test, another gender-matched unfamiliar mouse (S2) was placed into the empty cylinder and mice were allowed to freely explore for another 10 min. Their time spent sniffing S1 or S2 was measured and the social novelty preference index (T(S2 − S1)/T(S2 + S1): time spent sniffing S2 minus time spent sniffing S1 over time spent sniffing both S2 and S1) was calculated for comparison.

mice [2] = experiment: Self-grooming test; type: in vivo, mouse; design: Repetitive behaviors / Repetitive behaviors, Figure S4E: unit not given here; settings: for Repetitive behaviors: Figure 5D; for Repetitive behaviors / Repetitive behaviors, Figure S4E: Test2, individual animals
Description: as §1
Tested mice were placed individually in a clean cage with fresh bedding. After 5 min of habituation, the spontaneous behaviors of mice were recorded for 30 min and their self-grooming behavior was analyzed.

mice [3] = experiment: Novel location recognition (NLR) test; type: in vivo, mouse; design: key to NLR (novel location recognition), Figure S4D: discrimination index = (T novel − T familiar)/(T novel + T familiar); settings: for NLR (novel location recognition), Figure S4D: individual animals
Description: as §1
This test consists of habituation, training, and testing phases. Mice were first put into the open field apparatus described above for 10 min habituation. During the training phase, mice were allowed to freely explore two identical objects placed near two opposite corners of the open field arena for 8 min. Twenty-four hour later, one of the objects was moved to be close to a third corner (N: Novel location) while the other one was kept in the same spatial position (F: Familiar location). Mice were then tested for their exploration behavior with these objects for 8 min. The discrimination index (T(N − F)/T(N + F): time spent exploring the novel location minus time spent in familiar location over time spent to both novel and familiar location) was calculated to assess the recognition memory of mice.

mice [4] = experiment: Open field test; type: in vivo, mouse; design: OFT (open field test), Figure S4C: unit not given here; settings: individual animals;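 further: values are total travel distance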
Description: as §1
Mice were gently placed in the center of an open field apparatus (40 × 40 × 40 cm), and allowed for a 10-min period of free movement. Total distance traveled and time spent in center were analyzed.

human TrkB protein = experiment: GST pull-down of purified human TrkB with MDGA2 fragments; type: binding; settings: in vitro, GST-tagged fragments
Description: Full-length human TrkB or MDGA2 cDNA was cloned into the pcDNA6-His vector. TrkB and MDGA2 proteins were expressed in HEK293T cells and then purified using a His-tag Protein Purification Kit (Beyotime, Cat# P2229S).
GST pull-down: GST-fused MDGA2 fragments (L1: MDGA2 aa 746−786; L2: MDGA2 aa 787−833) were expressed in bacteria and purified using Glutathione Sepharose 4B (GE Healthcare, Cat# 17-0756-01). Purified human TrkB protein was incubated with GST-fused MDGA2-L1, MDGA2-L2, or GST proteins and then pulled down with Glutathione Sepharose 4B.

mice [5] = experiment: Social affiliation test; type: in vivo, mouse; settings: Mdga2+/- mice, 1 mg/kg i.p., 60 min, n = 10
Description: as §1
The test procedure was similar to that described previously. Briefly, a cylinder (8.5 cm in diameter) with a gender-matched reference mouse confined was placed at a specific location in an open field (40 cm in diameter). Tested mice were allowed to move freely in the open field for 7 min and their sniffing time with the reference mice was analyzed.

[6] = Mdga2+/- mice, 1 mg/kg i.p., 60 min, n = 10

Molecule: sp¦P27038¦AVR2A_MOUSE
- log2FC (hippocampal proteins): -1.635
- Class (hippocampal proteins): Down

Molecule: sp¦A2A791¦ZMYM4_MOUSE
- log2FC (hippocampal proteins): -2.935
- Class (hippocampal proteins): Down

Molecule: sp¦P97433¦ARG28_MOUSE
- log2FC (hippocampal proteins): -1.853
- Class (hippocampal proteins): Down

Molecule: sp¦A2AF47¦DOC11_MOUSE
- log2FC (hippocampal proteins): -1.478
- Class (hippocampal proteins): Down

Molecule: O=C(Nc1ccccc1C(=O)NC1CCCCNC1=O)c1cc2ccccc2s1 (stereo not shown) [ANA12]
- Sociability, Figure S4G (mice [1]; Het+ANA12, Test1): 0.42 and 0.0153 and 0.50 and 0.46 and 0.24 and 0.59 and 0.23 and -0.06 and 0.14 and 0.34 and 0.26 and 0.0119 and 0.40
- Social novelty, Figure S4G (mice [1]; Het+ANA12, Test1): 0.24 and 0.45 and 0.21 and -0.09 and -0.20 and 0.40 and 0.11 and -0.13 and 0.0948 and 0.000711 and 0.03 and 0.09 and 0.14 and 0.35
- Sociability, Figure S4G (mice [1]; Het+ANA12, Test2): 0.33 and -0.13 and 0.40 and 0.15 and 0.02 and -0.01 and 0.31 and 0.35 and 0.08 and 0.17 and 0.12 and 0.27 and -0.04 and -0.19 and 0.54
- Social novelty, Figure S4G (mice [1]; Het+ANA12, Test2): 0.15 and -0.17 and 0.23 and 0.32 and 0.18 and 0.16 and 0.44 and -0.13 and 0.0424 and -0.07 and 0.41 and -0.0144 and 0.06 and 0.0317 and 0.11
- Sociability, Figure S4G (mice [1]; WT+ANA12, Test1): 0.72 and 0.46 and 0.41 and 0.66 and 0.61 and 0.33 and 0.44 and 0.36 and 0.55 and -0.10 and 0.22 and -0.13 and 0.11
- Social novelty, Figure S4G (mice [1]; WT+ANA12, Test1): 0.05 and 0.43 and 0.53 and -0.13 and 0.39 and 0.40 and 0.32 and 0.62 and 0.44 and 0.33 and -0.01 and 0.18 and 0.61 and -0.10
- Sociability, Figure S4G (mice [1]; WT+ANA12, Test2): 0.39 and 0.66 and 0.10 and -0.24 and 0.51 and 0.65 and 0.38 and 0.48 and 0.50 and 0.31 and 0.54 and 0.29 and 0.71 and 0.09 and 0.47
- Social novelty, Figure S4G (mice [1]; WT+ANA12, Test2): -0.06 and 0.16 and 0.50 and 0.26 and 0.08 and 0.12 and 0.42 and 0.30 and 0.55 and 0.58 and 0.27 and 0.11 and 0.33
- Repetitive behaviors (mice [2]; Het+ANA12): 19 and 17 and 36 and 33 and 26 and 14 and 10 and 20 and 12 and 38 and 29 and 30 and 22 and 16
- Repetitive behaviors (mice [2]; WT+ANA12): 32 and 20 and 14 and 10 and 7 and 25 and 9 and 18 and 8 and 11 and 13
- Repetitive behaviors, Figure S4E (mice [2]; Het+ANA12): 15 and 19 and 11 and 20 and 12 and 38 and 30 and 29 and 18 and 13 and 26 and 32 and 22 and 35
- Repetitive behaviors, Figure S4E (mice [2]; WT+ANA12): 12 and 22 and 6 and 30 and 5 and 14 and 8 and 18 and 10 and 16 and 9 and 20 and 17 and 11
- NLR (novel location recognition), Figure S4D (mice [3]; Het+ANA12, Test1): -0.13 and 0.49 and 0.11 and 0.03 and 0.36 and -0.0741 and 0.20 and 0.55 and 0.14 and 0.51 and 0.0439 and 0.0756 and 0.45 and 0.32 and -0.03
- NLR (novel location recognition), Figure S4D (mice [3]; Het+ANA12, Test2): 0.15 and 0.00112 and 0.11 and 0.43 and 0.18 and -0.10 and 0.51 and 0.26 and -0.18 and 0.30 and 0.00129 and 0.14 and -0.04
- NLR (novel location recognition), Figure S4D (mice [3]; WT+ANA12, Test1): 0.36 and 0.47 and 0.12 and 0.06 and 0.23 and 0.50 and 0.35 and 0.32 and -0.035 and 0.43 and 0.37 and -0.09 and 0.25 and 0.51 and -0.07
- NLR (novel location recognition), Figure S4D (mice [3]; WT+ANA12, Test2): -0.05 and 0.41 and 0.35 and 0.09 and 0.46 and -0.12 and 0.53 and 0.45 and 0.17 and 0.20 and -0.17 and 0.62 and 0.54
- OFT (open field test), Figure S4C (mice [4]; Het+ANA12, Test1): 39.1 and 38.5 and 30.9 and 34.7 and 41.8 and 45.2 and 48.5 and 34.6 and 26.5
- OFT (open field test), Figure S4C (mice [4]; Het+ANA12, Test2): 19.1 and 38.5 and 35 and 43.1 and 30.9 and 22 and 39 and 30.4 and 45.6 and 31.5 and 29.6 and 25.1 and 49.6 and 27.8 and 28.2
- OFT (open field test), Figure S4C (mice [4]; WT+ANA12, Test1): 46.5 and 20.6 and 31.2 and 41.8 and 24 and 27.1 and 44.6 and 35 and 26.6 and 21.8 and 34.8 and 37 and 41.1 and 19.1 and 26.9
- OFT (open field test), Figure S4C (mice [4]; WT+ANA12, Test2): 43.3 and 20.5 and 26 and 46 and 26.1 and 37.1 and 47.7 and 21.2 and 24.6 and 27.2 and 22 and 34.1 and 17 and 29.8 and 32.4

Molecule: L1: GST-fused MDGA2 fragment aa 746−786 (FHCGFEDGNICLFTQDDTDNFDWTKQSTATRNTKYTPNTGP; cysteine pairing not given here; also: GST-fused)
- interaction with TrkB (GST pull-down) (human TrkB protein): not GST-tagged L1 interacted with TrkB

Molecule: sp¦Q80YX1¦TENA_MOUSE
- log2FC (hippocampal proteins): -1.6471
- Class (hippocampal proteins): Down

Molecule: L2: GST-fused MDGA2 fragment aa 787−833 (NADRSGSKEGFYMYIETSRPRLEGEKARLLSPVFSIAPKNPYGPTNT; also: GST-fused)
- interaction with TrkB (GST pull-down) (human TrkB protein): interacted with TrkB

Molecule: sp¦Q91WG7¦DGKG_MOUSE
- log2FC (hippocampal proteins): -3.157
- Class (hippocampal proteins): Down

Molecule: sp¦Q3UQ44¦IQGA2_MOUSE
- log2FC (hippocampal proteins): -1.377
- Class (hippocampal proteins): Down

Molecule: CCN(CC)Cc1cccc(/C=C/c2nc3ccc(F)cc3c(=O)n2-c2ccccc2Cl)n1 [CP-465022, reference compound]
- social affiliation (mice [5]): rapidly promoted social affiliation
- sociability (mice [1]; [6]): rapidly promoted social affiliation and sociability
- social novelty (mice [1]; [6]): without affecting social novelty
- repetitive self-grooming behavior (mice [2]; [6]): without affecting social novelty, recognition memory, and repetitive self-grooming behavior
- recognition memory (mice [3]; [6]): without affecting social novelty, recognition memory

Molecule: sp¦Q0VGY8¦TANC1_MOUSE
- log2FC (hippocampal proteins): -2.363
- Class (hippocampal proteins): Down
